What follows are molecules tested on Hela cell line (assay: MTT assay, oncolytic capability and cytotoxicity). Conditions: 4 days.
Format: cell-based, human
Description: In this example, to confirm the adenoviral proliferation capability and oncolytic capability of Ad pDNA-polymer-peptide complexes, a complex was manufactured using polymer PAM-ABP and d pDNA containing viral DNA of H-Rd19-k35/DCN/shcMet, which is a tumor-selective oncolytic adenovirus expressing adenovirus DNA such as decorin (DCN) and shcMet. A human uterine cancer cell line, Hela cell line, was inoculated into a 12-well plate, and after 24 hours, treated with naked Ad pDNA, Ad pDNA/PAM-ABP, Ad pDNA/PAM-ABP/peptide complexes in which 6 types of peptides such as mVI, mVI-TAT, mVI-TAT-A, mVI-G-TAT-A, mVI-A-TAT and mVI-G-A-TAT were conjugated with Ad pDNA/PAM-ABP, and controls such as VI-9R and a complex with a TAT peptide. In addition, to verify cytotoxicity, the cells were treated with PAM-ABP or a peptide alone. Four days after the treatment, the culture solution was collected, and the number of adenovirus particles was detected using Q-PCR, and to verify oncolytic capability, 2 mg/ml of 3-(4,5-dimethylthiazol-2-yl)-2,5-diphenyl-tetrazolium bromide (MTT; Sigma Aldrich) in PBS was added at 200 μL to each well of the supernatant-removed plate, and cultured at 37° C. for 4 hours. Afterward, the supernatant was removed, the precipitate was dissolved in 1.0 ml dimethyl sulfoxide, the absorbance was analyzed by reading the plate at 540 nm on a microplate reader, and a non-treated cell group was classified as a negative control.

Row | SMILES | cytotoxicity of peptide alone
1 | CC[C@H](C)[C@H](NC(=O)CNC(=O)[C@H](CO)NC(=O)[C@H](Cc1c[nH]c2ccccc12)NC(=O)[C@H](CC(C)C)NC(=O)[C@H](CO)NC(=O)CNC(=O)[C@H](Cc1c[nH]c2ccccc12)NC(=O)[C@@H](N)CO)C(=O)N[C@@H](CCCCN)C(=O)N[C@@H](CC(N)=O)C(=O)N[C@@H](Cc1ccccc1)C(=O)NCC(=O)N[C@@H](CCCNC(=N)N)C(=O)N[C@@H](CCCNC(=N)N)C(=O)N[C@@H](CCCNC(=N)N)C(=O)N[C@@H](CCCNC(=N)N)C(=O)N[C@@H](CCCNC(=N)N)C(=O)N[C@@H](CCCNC(=N)N)C(=O)N[C@@H](CCCNC(=N)N)C(=O)N[C@@H](CCCNC(=N)N)C(=O)N[C@@H](CCCNC(=N)N)C(=O)O [VI-9R] | high cytotoxicity
2 | CC[C@H](C)[C@H](NC(=O)CNC(=O)[C@H](CO)NC(=O)[C@H](Cc1c[nH]c2ccccc12)NC(=O)[C@H](CC(C)C)NC(=O)[C@H](CO)NC(=O)CNC(=O)[C@H](Cc1c[nH]c2ccccc12)NC(=O)[C@H](CO)NC(=O)[C@H](Cc1ccccc1)NC(=O)[C@H](C)N)C(=O)N[C@@H](CCCCN)C(=O)N[C@@H](CC(N)=O)C(=O)N[C@@H](Cc1ccccc1)C(=O)NCC(=O)N[C@@H](C)C(=O)N[C@@H](CC(C)C)C(=O)N[C@@H](C)C(=O)N[C@@H](CCC(=O)O)C(=O)N[C@@H](CCCNC(=N)N)C(=O)N[C@@H](CCCCN)C(=O)N[C@@H](CCCCN)C(=O)N[C@@H](CCCNC(=N)N)C(=O)N[C@@H](CCCNC(=N)N)C(=O)N[C@@H](CCC(N)=O)C(=O)N[C@@H](CCCNC(=N)N)C(=O)N[C@@H](CCCNC(=N)N)C(=O)N[C@@H](CCCNC(=N)N)C(=O)O [mVI-A-TAT] | relatively high cytotoxicity
3 | CC[C@H](C)[C@H](NC(=O)CNC(=O)[C@H](CO)NC(=O)[C@H](Cc1c[nH]c2ccccc12)NC(=O)[C@H](CC(C)C)NC(=O)[C@H](CO)NC(=O)CNC(=O)[C@H](Cc1c[nH]c2ccccc12)NC(=O)[C@H](CO)NC(=O)[C@H](Cc1ccccc1)NC(=O)[C@H](C)N)C(=O)N[C@@H](CCCCN)C(=O)N[C@@H](CC(N)=O)C(=O)N[C@@H](Cc1ccccc1)C(=O)NCC(=O)N[C@@H](Cc1ccccc1)C(=O)N[C@@H](CC(C)C)C(=O)NCC(=O)N[C@@H](C)C(=O)N[C@@H](CC(C)C)C(=O)N[C@@H](C)C(=O)N[C@@H](CCC(=O)O)C(=O)N[C@@H](CCCNC(=N)N)C(=O)N[C@@H](CCCCN)C(=O)N[C@@H](CCCCN)C(=O)N[C@@H](CCCNC(=N)N)C(=O)N[C@@H](CCCNC(=N)N)C(=O)N[C@@H](CCC(N)=O)C(=O)N[C@@H](CCCNC(=N)N)C(=O)N[C@@H](CCCNC(=N)N)C(=O)N[C@@H](CCCNC(=N)N)C(=O)O [mVI-G-A-TAT] | relatively high cytotoxicity
4 | CC[C@H](C)[C@H](NC(=O)CNC(=O)[C@H](CO)NC(=O)[C@H](Cc1c[nH]c2ccccc12)NC(=O)[C@H](CC(C)C)NC(=O)[C@H](CO)NC(=O)CNC(=O)[C@H](Cc1c[nH]c2ccccc12)NC(=O)[C@H](CO)NC(=O)[C@H](Cc1ccccc1)NC(=O)[C@H](C)N)C(=O)N[C@@H](CCCCN)C(=O)N[C@@H](CC(N)=O)C(=O)N[C@@H](Cc1ccccc1)C(=O)NCC(=O)N[C@@H](Cc1ccccc1)C(=O)N[C@@H](CC(C)C)C(=O)NCC(=O)N[C@@H](CCCNC(=N)N)C(=O)N[C@@H](CCCCN)C(=O)N[C@@H](CCCCN)C(=O)N[C@@H](CCCNC(=N)N)C(=O)N[C@@H](CCCNC(=N)N)C(=O)N[C@@H](CCC(N)=O)C(=O)N[C@@H](CCCNC(=N)N)C(=O)N[C@@H](CCCNC(=N)N)C(=O)N[C@@H](CCCNC(=N)N)C(=O)N[C@@H](C)C(=O)N[C@@H](CC(C)C)C(=O)N[C@@H](C)C(=O)N[C@@H](CCC(=O)O)C(=O)O [mVI-G-TAT-A] | relatively high cytotoxicity
5 | CC[C@H](C)[C@H](NC(=O)CNC(=O)[C@H](CO)NC(=O)[C@H](Cc1c[nH]c2ccccc12)NC(=O)[C@H](CC(C)C)NC(=O)[C@H](CO)NC(=O)CNC(=O)[C@H](Cc1c[nH]c2ccccc12)NC(=O)[C@H](CO)NC(=O)[C@H](Cc1ccccc1)NC(=O)[C@H](C)N)C(=O)N[C@@H](CCCCN)C(=O)N[C@@H](CC(N)=O)C(=O)N[C@@H](Cc1ccccc1)C(=O)NCC(=O)O [mVI] | relatively high cytotoxicity

— US10722587B2, “Composition for intracellular delivery containing adenovirus protein VI-derived peptide and anticancer pharmaceutical composition containing same” (priority 2015, dated 2020)
